In the supplement of paper PMC10307832:

Legend:
Assay in all cases: relative viability (nuclei count vs DMSO), 5 days (fraction); higher = more cells survive
[1] = compound: CCn1c(-c2nonc2N)nc2cnc(Oc3cccc(NC(=O)c4ccc(OCCN5CCOCC5)cc4)c3)cc21 + O=C(c1cc(Cc2n[nH]c(=O)c3ccccc23)ccc1F)N1CCN(C(=O)C2CC2)CC1 [Olaparib] (partner 8 µM)
How it was run: (§1)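 After 5 days of treatment, lung cancer cells in 1536-well plates were fixed and stained in a single step (final 0.05% Triton X-100, 1% formaldehyde, 1 ug/ml Hoechst) and their nuclei counted on 4× images. Treatment had been applied by pin tool the day after seeding as one drug alone or as a fixed anchor-drug dose with five library-drug doses (not always all listed) in √10 steps. Relative viability is the nuclei count of treated wells divided by that of vehicle wells, and values are medians of duplicate plates.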

[2] = compound: CCn1c(-c2nonc2N)nc2cnc(Oc3cccc(NC(=O)c4ccc(OCCN5CCOCC5)cc4)c3)cc21 + Cc1nc(NC(=O)N2CCC[C@H]2C(N)=O)sc1-c1ccnc(C(C)(C)C(F)(F)F)c1 [Alpelisib] (partner 2 µM)
How it was run: as §1

[3] = compound: CCC1=CN=CN=C1N2CCN(CC2)CC3=NC4=C(N3)C=C(C=C4)C(F)(F)F + COc1cc2c(Oc3ccc(NC(=O)C4(C(=O)Nc5ccc(F)cc5)CC4)cc3F)ccnc2cc1OCCCN1CCOCC1 [Foretinib] (partner 0.25 µM)
How it was run: as §1

[4] = compound: CCn1c(-c2nonc2N)nc2cnc(Oc3cccc(NC(=O)c4ccc(OCCN5CCOCC5)cc4)c3)cc21 + C[C@@H](Oc1cc(-c2cnn(C3CCNCC3)c2)cnc1N)c1c(Cl)ccc(F)c1Cl [Crizotinib] (partner 1 µM)
How it was run: as §1

UMC-11 gave a relative viability ([1]; first compound 0.04 µM) of 0.38, a relative viability ([1]; first compound 0.1265 µM) of 0.303 and a relative viability ([1]; first compound 0.4 µM) of 0.32. The relative viability ([1]; first compound 1.265 µM) was 0.088, the relative viability ([1]; first compound 4 µM) was 0.185 and the relative viability ([2]; first compound 0.04 µM) was 1.17. It also gave a relative viability ([2]; first compound 0.1265 µM) of 0.991, a relative viability ([2]; first compound 0.4 µM) of 0.78 and a relative viability ([2]; first compound 1.265 µM) of 0.251. The relative viability ([2]; first compound 4 µM) was 0.233, the relative viability ([3]; first compound 0.04 µM) was 0.997 and the relative viability ([3]; first compound 0.1265 µM) was 0.932. It also gave a relative viability ([3]; first compound 0.4 µM) of 1, a relative viability ([3]; first compound 1.265 µM) of 0.898 and a relative viability ([3]; first compound 4 µM) of 0.96. The relative viability ([4]; first compound 0.04 µM) was 0.924, the relative viability ([4]; first compound 0.1265 µM) was 0.743 and the relative viability ([4]; first compound 0.4 µM) was 0.577. For the same cell line, the relative viability ([4]; first compound 1.265 µM) was 0.135 and the relative viability ([4]; first compound 4 µM) was 0.121.
